One test has as its system NCI-H2009. Description: relative viability (nuclei count vs DMSO), 5 days (fraction); higher = more cells survive. The following applies: first compound 0.6325 µM. Put shortly:
(§1)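 Dosing by pin tool came one day after lung cancer cell lines were seeded in 1536-well plates, using either one drug or a fixed anchor-drug dose plus five library-drug doses (not always all listed) in √10 steps. After 5 days, nuclei were counted on 4× images. Relative viability is treated-well nuclei count divided by vehicle-well nuclei count, and values are medians of duplicate plates.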
Compound `COCC1(CO)C(=O)C2CCN1CC2` (stereo not drawn) [PRIMA-1MET] + Cc1nc(Nc2ncc(C(=O)Nc3c(C)cccc3Cl)s2)cc(N2CCN(CCO)CC2)n1 [Dasatinib] (partner 0.075 µM) yielded a relative viability of 0.314.

The test is the same for the next values; noted with them: first compound 2 µM.
On to `COCC1(CO)C(=O)C2CCN1CC2` (stereo not drawn) [PRIMA-1MET] + CCNC(=O)c1noc(-c2cc(C(C)C)c(O)cc2O)c1-c1ccc(CN2CCOCC2)cc1 [Luminespib] (partner 0.01 µM), for which the relative viability came to 1.1.

For `COCC1(CO)C(=O)C2CCN1CC2` (stereo not drawn) [PRIMA-1MET] + COc1cccc2cc(-c3nc([C@H]4CC[C@H](C(=O)O)CC4)n4ncnc(N)c34)[nH]c12 [OSI-027] (partner 0.5 µM), the relative viability is 0.643.

Turning to `COCC1(CO)C(=O)C2CCN1CC2` (stereo not drawn) [PRIMA-1MET] + N=C(N)NC(=N)NCCc1ccccc1 [Phenformin] (partner 250 µM), the relative viability was 0.519.

`COCC1(CO)C(=O)C2CCN1CC2` (stereo not drawn) [PRIMA-1MET] + Nc1nc2[nH]cc(CCc3ccc(C(=O)N[C@@H](CCC(=O)O)C(=O)O)cc3)c2c(=O)[nH]1 [Pemetrexed] (partner 0.2 µM) displayed a relative viability of 1.03.

Compound `COCC1(CO)C(=O)C2CCN1CC2` (stereo not drawn) [PRIMA-1MET] + Cc1nc(Nc2ncc(C(=O)Nc3c(C)cccc3Cl)s2)cc(N2CCN(CCO)CC2)n1 [Dasatinib] (partner 0.075 µM) gave a relative viability of 0.294.

The test is the same for the next values; noted with them: first compound 6.325 µM.
The compound `COCC1(CO)C(=O)C2CCN1CC2` (stereo not drawn) [PRIMA-1MET] + CCNC(=O)c1noc(-c2cc(C(C)C)c(O)cc2O)c1-c1ccc(CN2CCOCC2)cc1 [Luminespib] (partner 0.01 µM) had a relative viability of 1.04.

Take `COCC1(CO)C(=O)C2CCN1CC2` (stereo not drawn) [PRIMA-1MET] + COc1cccc2cc(-c3nc([C@H]4CC[C@H](C(=O)O)CC4)n4ncnc(N)c34)[nH]c12 [OSI-027] (partner 0.5 µM): the relative viability is 0.67.

`COCC1(CO)C(=O)C2CCN1CC2` (stereo not drawn) [PRIMA-1MET] + N=C(N)NC(=N)NCCc1ccccc1 [Phenformin] (partner 250 µM) showed a relative viability of 0.53.

Consider `COCC1(CO)C(=O)C2CCN1CC2` (stereo not drawn) [PRIMA-1MET] + Nc1nc2[nH]cc(CCc3ccc(C(=O)N[C@@H](CCC(=O)O)C(=O)O)cc3)c2c(=O)[nH]1 [Pemetrexed] (partner 0.2 µM), for which the relative viability was found to be 0.96.

In the case of `COCC1(CO)C(=O)C2CCN1CC2` (stereo not drawn) [PRIMA-1MET] + Cc1nc(Nc2ncc(C(=O)Nc3c(C)cccc3Cl)s2)cc(N2CCN(CCO)CC2)n1 [Dasatinib] (partner 0.075 µM), the relative viability worked out at 0.142.

Staying with this test, now noted: first compound 20 µM.
In the case of `COCC1(CO)C(=O)C2CCN1CC2` (stereo not drawn) [PRIMA-1MET] + CCNC(=O)c1noc(-c2cc(C(C)C)c(O)cc2O)c1-c1ccc(CN2CCOCC2)cc1 [Luminespib] (partner 0.01 µM), the relative viability worked out at 0.307.

Consider `COCC1(CO)C(=O)C2CCN1CC2` (stereo not drawn) [PRIMA-1MET] + COc1cccc2cc(-c3nc([C@H]4CC[C@H](C(=O)O)CC4)n4ncnc(N)c34)[nH]c12 [OSI-027] (partner 0.5 µM), for which the relative viability stood at 0.0063.

In turn, `COCC1(CO)C(=O)C2CCN1CC2` (stereo not drawn) [PRIMA-1MET] + N=C(N)NC(=N)NCCc1ccccc1 [Phenformin] (partner 250 µM) gave a relative viability of 0.217.

The compound `COCC1(CO)C(=O)C2CCN1CC2` (stereo not drawn) [PRIMA-1MET] + Nc1nc2[nH]cc(CCc3ccc(C(=O)N[C@@H](CCC(=O)O)C(=O)O)cc3)c2c(=O)[nH]1 [Pemetrexed] (partner 0.2 µM) came in with a relative viability of 0.435.

As for `COCC1(CO)C(=O)C2CCN1CC2` (stereo not drawn) [PRIMA-1MET] + Cc1nc(Nc2ncc(C(=O)Nc3c(C)cccc3Cl)s2)cc(N2CCN(CCO)CC2)n1 [Dasatinib] (partner 0.075 µM), the relative viability turned out to be 0.0053.

Another test deals with NCI-H1755. Described as above. The following applies: first compound 0.2 µM. Put shortly:
as §1
Consider `COCC1(CO)C(=O)C2CCN1CC2` (stereo not drawn) [PRIMA-1MET] + CCNC(=O)c1noc(-c2cc(C(C)C)c(O)cc2O)c1-c1ccc(CN2CCOCC2)cc1 [Luminespib] (partner 0.01 µM), for which the relative viability turned out to be 0.527.

`COCC1(CO)C(=O)C2CCN1CC2` (stereo not drawn) [PRIMA-1MET] + COc1cccc2cc(-c3nc([C@H]4CC[C@H](C(=O)O)CC4)n4ncnc(N)c34)[nH]c12 [OSI-027] (partner 0.5 µM) registered a relative viability of 0.664.

`COCC1(CO)C(=O)C2CCN1CC2` (stereo not drawn) [PRIMA-1MET] + N=C(N)NC(=N)NCCc1ccccc1 [Phenformin] (partner 250 µM): the relative viability is 0.613.

For `COCC1(CO)C(=O)C2CCN1CC2` (stereo not drawn) [PRIMA-1MET] + Nc1nc2[nH]cc(CCc3ccc(C(=O)N[C@@H](CCC(=O)O)C(=O)O)cc3)c2c(=O)[nH]1 [Pemetrexed] (partner 0.2 µM), the relative viability was found to be 0.465.

Compound `COCC1(CO)C(=O)C2CCN1CC2` (stereo not drawn) [PRIMA-1MET] + Cc1nc(Nc2ncc(C(=O)Nc3c(C)cccc3Cl)s2)cc(N2CCN(CCO)CC2)n1 [Dasatinib] (partner 0.075 µM) yielded a relative viability of 0.476.

The test is the same for the next values; noted with them: first compound 0.6325 µM.
On to `COCC1(CO)C(=O)C2CCN1CC2` (stereo not drawn) [PRIMA-1MET] + CCNC(=O)c1noc(-c2cc(C(C)C)c(O)cc2O)c1-c1ccc(CN2CCOCC2)cc1 [Luminespib] (partner 0.01 µM), for which the relative viability worked out at 0.332.

Turning to `COCC1(CO)C(=O)C2CCN1CC2` (stereo not drawn) [PRIMA-1MET] + COc1cccc2cc(-c3nc([C@H]4CC[C@H](C(=O)O)CC4)n4ncnc(N)c34)[nH]c12 [OSI-027] (partner 0.5 µM), the relative viability is 0.668.

On to `COCC1(CO)C(=O)C2CCN1CC2` (stereo not drawn) [PRIMA-1MET] + N=C(N)NC(=N)NCCc1ccccc1 [Phenformin] (partner 250 µM), for which the relative viability was found to be 0.659.

For `COCC1(CO)C(=O)C2CCN1CC2` (stereo not drawn) [PRIMA-1MET] + Nc1nc2[nH]cc(CCc3ccc(C(=O)N[C@@H](CCC(=O)O)C(=O)O)cc3)c2c(=O)[nH]1 [Pemetrexed] (partner 0.2 µM), the relative viability is 0.388.

In the case of `COCC1(CO)C(=O)C2CCN1CC2` (stereo not drawn) [PRIMA-1MET] + Cc1nc(Nc2ncc(C(=O)Nc3c(C)cccc3Cl)s2)cc(N2CCN(CCO)CC2)n1 [Dasatinib] (partner 0.075 µM), the relative viability was found to be 0.471.

The same test, now with this note: first compound 2 µM.
The compound `COCC1(CO)C(=O)C2CCN1CC2` (stereo not drawn) [PRIMA-1MET] + CCNC(=O)c1noc(-c2cc(C(C)C)c(O)cc2O)c1-c1ccc(CN2CCOCC2)cc1 [Luminespib] (partner 0.01 µM) returned a relative viability of 0.404.

Consider `COCC1(CO)C(=O)C2CCN1CC2` (stereo not drawn) [PRIMA-1MET] + COc1cccc2cc(-c3nc([C@H]4CC[C@H](C(=O)O)CC4)n4ncnc(N)c34)[nH]c12 [OSI-027] (partner 0.5 µM), for which the relative viability came to 0.402.

For the compound `COCC1(CO)C(=O)C2CCN1CC2` (stereo not drawn) [PRIMA-1MET] + N=C(N)NC(=N)NCCc1ccccc1 [Phenformin] (partner 250 µM), the relative viability was determined as 0.406.

As to `COCC1(CO)C(=O)C2CCN1CC2` (stereo not drawn) [PRIMA-1MET] + Nc1nc2[nH]cc(CCc3ccc(C(=O)N[C@@H](CCC(=O)O)C(=O)O)cc3)c2c(=O)[nH]1 [Pemetrexed] (partner 0.2 µM), the relative viability amounted to 0.406.

With `COCC1(CO)C(=O)C2CCN1CC2` (stereo not drawn) [PRIMA-1MET] + Cc1nc(Nc2ncc(C(=O)Nc3c(C)cccc3Cl)s2)cc(N2CCN(CCO)CC2)n1 [Dasatinib] (partner 0.075 µM), the relative viability stood at 0.397.

Staying with this test, now noted: first compound 6.325 µM.
Turning to `COCC1(CO)C(=O)C2CCN1CC2` (stereo not drawn) [PRIMA-1MET] + CCNC(=O)c1noc(-c2cc(C(C)C)c(O)cc2O)c1-c1ccc(CN2CCOCC2)cc1 [Luminespib] (partner 0.01 µM), the relative viability came to 0.51.

The compound `COCC1(CO)C(=O)C2CCN1CC2` (stereo not drawn) [PRIMA-1MET] + COc1cccc2cc(-c3nc([C@H]4CC[C@H](C(=O)O)CC4)n4ncnc(N)c34)[nH]c12 [OSI-027] (partner 0.5 µM) registered a relative viability of 0.682.

For the origin of these results see the supplement of paper PMC10307832.
